Assay results published in ChEMBL document CHEMBL1201862, “PubChem BioAssay data set” (2004).
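Grown in 96-well plates, cells were treated for 48 hours with each compound at five concentrations. Insufficient inhibition: endpoint recorded as highest concentration tested. The concentration for 50% growth inhibition is given as GI50.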 Calls of active or inactive are those of the source. Rule as the data show it: active = GI50 up to about 1.1 µM and inactive = higher.

Assays:
Test in all cases: inhibition of tumour cell growth, NCI panel, 48 h
A498 = system: A498
A549 = system: A549
DU-145 = system: DU-145
HCT-15 = system: HCT-15
M14 = system: M14
MCF7 = system: MCF7
MDA-MB-435 = system: MDA-MB-435
NCI-H226 = system: NCI-H226
NCI-H23 = system: NCI-H23
NCI-H460 = system: NCI-H460
NCI-H522 = system: NCI-H522
OVCAR-3 = system: OVCAR-3
SF-295 = system: SF-295
SF-539 = system: SF-539
SK-MEL-5 = system: SK-MEL-5
SN12C = system: SN12C
SNB-19 = system: SNB-19
U-251 = system: U-251
HCC 2998 = system: HCC 2998
UACC-62 = system: UACC-62

Row | SMILES | GI50 (A498) | GI50 (A549) | GI50 (DU-145) | GI50 (HCT-15) | GI50 (M14) | GI50 (MCF7) | GI50 (MDA-MB-435) | GI50 (NCI-H226) | GI50 (NCI-H23) | GI50 (NCI-H460) | GI50 (NCI-H522) | GI50 (OVCAR-3) | GI50 (SF-295) | GI50 (SF-539) | GI50 (SK-MEL-5) | GI50 (SN12C) | GI50 (SNB-19) | GI50 (U-251) | GI50 (HCC 2998) | GI50 (UACC-62)
1 | CC(Nc1ccc(Cl)c(Cl)c1)c1ccncc1 (stereo not given) | 20.1 µM (inactive) | 10.5 µM (inactive) | 30.2 µM (inactive) | 40.3 µM | 29 µM (inactive) | 22.4 µM (inactive) | 29.4 µM (inactive) | 17.9 µM (inactive) | 31.4 µM (inactive) | 16.6 µM (inactive) | 12.5 µM (inactive) | 26.8 µM (inactive) | 23.9 µM (inactive) | 30.8 µM (inactive) | 16.7 µM (inactive) | 50.7 µM (inactive) | 22.5 µM (inactive) | 19.9 µM (inactive) | – | –
2 | CCOC(=O)c1nc2ccccc2nc1Nc1ccc(OC)c(OC)c1 | – | > 100 µM (inactive) | > 100 µM (inactive) | > 100 µM | > 100 µM (inactive) | > 100 µM (inactive) | > 100 µM (inactive) | – | > 100 µM (inactive) | > 100 µM (inactive) | > 100 µM (inactive) | > 100 µM (inactive) | > 100 µM (inactive) | > 100 µM (inactive) | 63.7 µM (inactive) | > 100 µM (inactive) | > 100 µM (inactive) | 75.7 µM (inactive) | > 100 µM (inactive) | > 100 µM (inactive)
3 | O=C(/C=C/c1ccc(O)cc1)c1cc(O)cc(O)c1 | 14.9 µM (inactive) | 16.5 µM (inactive) | 12.7 µM (inactive) | 5.4 µM | 15.7 µM (inactive) | 3.54 µM (inactive) | 14.2 µM (inactive) | 24.1 µM (inactive) | 20.5 µM (inactive) | – | 3.95 µM (inactive) | 15.3 µM (inactive) | 15.7 µM (inactive) | 13.5 µM (inactive) | 15.5 µM (inactive) | 15.2 µM (inactive) | 16.7 µM (inactive) | 14.5 µM (inactive) | – | 10.4 µM (inactive)
4 | c1ccc2c(c1)cc1c3[nH]c4ccccc4c3ccn21 | – | > 10 µM (inactive) | > 10 µM (inactive) | > 10 µM | > 10 µM (inactive) | 1.19 µM (inactive) | > 10 µM (inactive) | > 10 µM (inactive) | > 10 µM (inactive) | > 10 µM (inactive) | > 10 µM (inactive) | > 10 µM (inactive) | > 10 µM (inactive) | > 10 µM (inactive) | > 10 µM (inactive) | > 10 µM (inactive) | > 10 µM (inactive) | > 10 µM (inactive) | > 10 µM (inactive) | > 10 µM (inactive)
5 | COc1ccc(Nc2nn3c(=O)c4c(C)c(C)sc4nc3s2)cc1 | – | 18.6 µM (inactive) | 18.1 µM (inactive) | 44.7 µM | 61.1 µM (inactive) | 34.8 µM (inactive) | 34.7 µM (inactive) | 67.8 µM (inactive) | 18.7 µM (inactive) | 28.6 µM (inactive) | 25.5 µM (inactive) | 29.1 µM (inactive) | 37.7 µM (inactive) | 33 µM (inactive) | 41.1 µM (inactive) | 33.5 µM (inactive) | 47.6 µM (inactive) | 37.9 µM (inactive) | – | 71 µM (inactive)
6 | Cc1nc(O)c(O)c(CN2CCCCC2)n1 | > 100 µM (inactive) | > 100 µM (inactive) | > 100 µM (inactive) | > 100 µM | > 100 µM (inactive) | > 100 µM (inactive) | > 100 µM (inactive) | > 100 µM (inactive) | > 100 µM (inactive) | > 100 µM (inactive) | > 100 µM (inactive) | > 100 µM (inactive) | > 100 µM (inactive) | > 100 µM (inactive) | > 100 µM (inactive) | > 100 µM (inactive) | > 100 µM (inactive) | > 100 µM (inactive) | – | > 100 µM (inactive)
7 | Nc1c(S(=O)(=O)O)cc(Nc2cccc(S(N)(=O)=O)c2)c2c1C(=O)c1ccccc1C2=O | > 100 µM (inactive) | > 100 µM (inactive) | > 100 µM (inactive) | 84.5 µM | 50.6 µM (inactive) | > 100 µM (inactive) | 17.7 µM (inactive) | > 100 µM (inactive) | 35.1 µM (inactive) | 87.5 µM (inactive) | 57.8 µM (inactive) | 83.9 µM (inactive) | 49.7 µM (inactive) | > 100 µM (inactive) | 37.5 µM (inactive) | > 100 µM (inactive) | > 100 µM (inactive) | 46.5 µM (inactive) | – | 24.2 µM (inactive)
8 | C=C(C)[C@@H]1CC[C@@]2(C)[C@H]1[C@H]1CCC3[C@@]4(C)CC[C@H](O)C(C)(C)[C@@H]4CC[C@@]3(C)[C@]1(C)C[C@@H]2O (stereo not given in full) [CALENDULADIOL] | > 100 µM (inactive) | 11.1 µM (inactive) | 74.8 µM (inactive) | 18.5 µM | > 100 µM (inactive) | 22.8 µM (inactive) | 23.1 µM (inactive) | > 100 µM (inactive) | > 100 µM (inactive) | 23 µM (inactive) | 17.6 µM (inactive) | 52.1 µM (inactive) | 23.7 µM (inactive) | 67 µM (inactive) | 19.1 µM (inactive) | 87.9 µM (inactive) | 54.7 µM (inactive) | 25.3 µM (inactive) | – | –
9 | Cc1nnc2sc(NN)nn12 | > 100 µM (inactive) | > 100 µM (inactive) | > 100 µM (inactive) | > 100 µM | > 100 µM (inactive) | > 100 µM (inactive) | > 100 µM (inactive) | > 100 µM (inactive) | > 100 µM (inactive) | > 100 µM (inactive) | > 100 µM (inactive) | > 100 µM (inactive) | > 100 µM (inactive) | > 100 µM (inactive) | > 100 µM (inactive) | > 100 µM (inactive) | > 100 µM (inactive) | > 100 µM (inactive) | – | 77.4 µM (inactive)
10 | COc1ccc2nc3cc(Cl)ccc3c(NCCC[N+](C)(C)CCCCCCCCCCCCCCCC[N+](C)(C)CCCNc3c4ccc(Cl)cc4nc4ccc(OC)cc34)c2c1 | 6.17 µM (inactive) | 3.12 µM (inactive) | – | 5.85 µM | 4.7 µM (inactive) | – | – | 3.94 µM (inactive) | 2 µM (inactive) | 1.68 µM (inactive) | 2.81 µM (inactive) | 4.81 µM (inactive) | 6.03 µM (inactive) | 2.25 µM (inactive) | 2 µM (inactive) | 3.22 µM (inactive) | 2.69 µM (inactive) | 2 µM (inactive) | 2.84 µM (inactive) | 2.69 µM (inactive)
11 | Cc1cccc(C)c1NC(=O)C(=O)Nn1c(NN)nc2ccccc2c1=O | > 100 µM (inactive) | > 100 µM (inactive) | – | > 100 µM | > 100 µM (inactive) | – | – | > 100 µM (inactive) | > 100 µM (inactive) | > 100 µM (inactive) | > 100 µM (inactive) | > 100 µM (inactive) | > 100 µM (inactive) | > 100 µM (inactive) | > 100 µM (inactive) | > 100 µM (inactive) | > 100 µM (inactive) | > 100 µM (inactive) | > 100 µM (inactive) | > 100 µM (inactive)
12 | CC1(C)Cc2c(sc3[nH]c(=S)[nH]c(=S)c23)CS1 | 33 µM (inactive) | 59.2 µM (inactive) | > 100 µM (inactive) | 33.3 µM | 30.2 µM (inactive) | 32.8 µM (inactive) | 29.9 µM (inactive) | 44.5 µM (inactive) | 55.3 µM (inactive) | 40.2 µM (inactive) | – | 26.2 µM (inactive) | – | 37.9 µM (inactive) | 29.6 µM (inactive) | 40.5 µM (inactive) | 54.8 µM (inactive) | 41.9 µM (inactive) | – | 18.5 µM (inactive)
13 | Cc1cc(S(=O)(=O)O)ccc1/N=N/c1c(O)ccc2ccccc12 | – | > 100 µM (inactive) | > 100 µM (inactive) | > 100 µM | > 100 µM (inactive) | – | > 100 µM (inactive) | > 100 µM (inactive) | > 100 µM (inactive) | – | > 100 µM (inactive) | > 100 µM (inactive) | > 100 µM (inactive) | – | > 100 µM (inactive) | > 100 µM (inactive) | > 100 µM (inactive) | > 100 µM (inactive) | – | > 100 µM (inactive)
14 | Cc1ccc(/C=N/NC2=NCCN2)s1 | – | > 100 µM (inactive) | > 100 µM (inactive) | > 100 µM | > 100 µM (inactive) | > 100 µM (inactive) | > 100 µM (inactive) | 79.4 µM (inactive) | > 100 µM (inactive) | – | > 100 µM (inactive) | > 100 µM (inactive) | > 100 µM (inactive) | > 100 µM (inactive) | > 100 µM (inactive) | > 100 µM (inactive) | > 100 µM (inactive) | > 100 µM (inactive) | > 100 µM (inactive) | > 100 µM (inactive)
15 | CCCCCN1C(=O)C(Cc2ccccc2)N=C(c2ccc(O)cc2)c2cc(Cl)ccc21 (stereo not given) | > 33.7 µM (inactive) | 13.6 µM (inactive) | 15.8 µM (inactive) | 7.67 µM | 11.2 µM (inactive) | 9.98 µM (inactive) | 9.53 µM (inactive) | 7.43 µM (inactive) | 4.98 µM (inactive) | 7.73 µM (inactive) | 2.55 µM (inactive) | 17.3 µM (inactive) | 6.93 µM (inactive) | 22.2 µM (inactive) | – | > 20.7 µM (inactive) | 14.5 µM (inactive) | 9.35 µM (inactive) | – | 10.3 µM (inactive)
16 | NN/C(=N\S(=O)(=O)c1cc2ccccc2s1)Nc1ccc(Cl)cc1 | 19.9 µM (inactive) | 19.4 µM (inactive) | 17.8 µM (inactive) | 30.5 µM | 20.9 µM (inactive) | 20.2 µM (inactive) | – | 19.3 µM (inactive) | 20.3 µM (inactive) | 18.5 µM (inactive) | – | 18.9 µM (inactive) | 19.9 µM (inactive) | 16.1 µM (inactive) | 17.9 µM (inactive) | 22 µM (inactive) | 27 µM (inactive) | 17.7 µM (inactive) | – | 17.5 µM (inactive)
